Data taken from US20200291018A1, “TAM KINASE INHIBITORS” (SYROS PHARMACEUTICALS, INC., priority 2017, published 2020).

Key:
[1] = target: T1, MERTK (Homo sapiens, UniProt Q12866); assay: TR-FRET kinase activity assay, MERTK; format: biochemical; conditions: for IC50: TR-FRET activity assay, ATP at Km, 60 minutes, read-out: Mer IC50; for Mer/Flt3 ratio (FLT3 IC50/Mer IC50): ratio calculated as FLT3 IC50/Mer IC50
T1 sequence (Q12866 21-999): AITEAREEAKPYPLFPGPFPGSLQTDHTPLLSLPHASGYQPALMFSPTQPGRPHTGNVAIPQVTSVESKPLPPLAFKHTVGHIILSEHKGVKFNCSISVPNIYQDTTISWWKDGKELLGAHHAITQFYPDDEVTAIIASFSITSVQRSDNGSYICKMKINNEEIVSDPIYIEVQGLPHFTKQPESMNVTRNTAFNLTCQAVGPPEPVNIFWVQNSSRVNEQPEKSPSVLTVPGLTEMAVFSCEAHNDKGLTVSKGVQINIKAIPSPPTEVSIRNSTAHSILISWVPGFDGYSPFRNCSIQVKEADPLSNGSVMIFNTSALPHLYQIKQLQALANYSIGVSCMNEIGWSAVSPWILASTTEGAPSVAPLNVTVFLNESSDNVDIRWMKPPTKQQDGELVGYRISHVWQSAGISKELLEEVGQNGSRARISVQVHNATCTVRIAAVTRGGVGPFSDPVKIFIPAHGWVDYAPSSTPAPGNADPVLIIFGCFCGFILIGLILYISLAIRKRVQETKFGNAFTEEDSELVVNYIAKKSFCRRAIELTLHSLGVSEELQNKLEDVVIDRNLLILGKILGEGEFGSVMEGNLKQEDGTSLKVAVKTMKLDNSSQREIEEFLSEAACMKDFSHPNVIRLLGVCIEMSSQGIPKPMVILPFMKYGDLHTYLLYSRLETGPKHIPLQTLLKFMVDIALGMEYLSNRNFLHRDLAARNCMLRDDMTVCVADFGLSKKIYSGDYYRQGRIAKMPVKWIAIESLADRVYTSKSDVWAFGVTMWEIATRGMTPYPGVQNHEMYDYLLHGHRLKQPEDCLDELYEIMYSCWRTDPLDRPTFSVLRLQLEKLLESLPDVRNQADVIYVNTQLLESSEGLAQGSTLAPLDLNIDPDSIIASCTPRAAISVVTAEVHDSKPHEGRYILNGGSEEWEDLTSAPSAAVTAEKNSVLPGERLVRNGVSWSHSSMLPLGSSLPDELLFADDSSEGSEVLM
Summary of the method: (§1)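 IC50 came from TR-FRET signal after 30 min dark development with a Europium-labeled phospho-specific antibody. This followed a 60 min RT reaction, stopped with EDTA, started with ATP at Km per enzyme. Peptide substrate, enzyme and compound were premixed in HEPES pH 7.5 buffer with MgCl2, EGTA, Brij 35 and DTT.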

[2] = target: T2, FLT3 (Homo sapiens, UniProt P36888); assay: TR-FRET kinase activity assay, FLT3; format: biochemical; conditions: ATP at Km, 60 minutes
T2 sequence (P36888 27-993): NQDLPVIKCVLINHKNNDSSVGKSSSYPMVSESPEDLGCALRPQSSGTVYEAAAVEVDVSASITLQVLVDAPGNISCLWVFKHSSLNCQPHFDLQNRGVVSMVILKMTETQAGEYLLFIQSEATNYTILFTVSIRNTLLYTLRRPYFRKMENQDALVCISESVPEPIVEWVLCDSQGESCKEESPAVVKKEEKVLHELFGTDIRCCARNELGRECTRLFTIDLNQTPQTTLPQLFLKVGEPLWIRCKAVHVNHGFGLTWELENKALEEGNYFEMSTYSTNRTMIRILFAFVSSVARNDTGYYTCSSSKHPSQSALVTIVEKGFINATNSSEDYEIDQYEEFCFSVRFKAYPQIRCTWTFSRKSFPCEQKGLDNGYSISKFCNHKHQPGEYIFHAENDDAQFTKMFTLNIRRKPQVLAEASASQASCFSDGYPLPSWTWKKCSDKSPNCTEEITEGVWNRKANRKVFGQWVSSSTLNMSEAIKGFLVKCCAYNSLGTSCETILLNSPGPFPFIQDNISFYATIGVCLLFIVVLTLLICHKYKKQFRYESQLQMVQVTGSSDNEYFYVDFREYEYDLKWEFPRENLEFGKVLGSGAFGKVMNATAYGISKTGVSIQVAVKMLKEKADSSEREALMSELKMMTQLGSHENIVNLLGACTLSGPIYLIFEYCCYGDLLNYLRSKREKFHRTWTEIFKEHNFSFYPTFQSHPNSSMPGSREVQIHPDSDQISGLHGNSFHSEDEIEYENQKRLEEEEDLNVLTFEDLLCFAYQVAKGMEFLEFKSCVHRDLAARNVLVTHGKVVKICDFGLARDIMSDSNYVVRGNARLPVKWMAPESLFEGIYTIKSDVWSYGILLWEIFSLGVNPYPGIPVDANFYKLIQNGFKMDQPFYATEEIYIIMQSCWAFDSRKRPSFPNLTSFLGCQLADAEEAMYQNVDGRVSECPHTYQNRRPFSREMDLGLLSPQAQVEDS
Summary of the method: as §1

Compound	IC50 [1]	Mer/Flt3 ratio (FLT3 IC50/Mer IC50) [1]	IC50 [2]
CCCC(C)Nc1ncc2c(=O)n(C3CCNCC3)cc([C@H]3CC[C@H](O)CC3)c2n1 (stereo partly drawn) [Compound 112]	≤ 100 nM	+++ (a ratio of >100)	1000 to 10000 nM
CCCCNc1cc2c(cn1)c(=O)n(C1CCN(C)CC1)cc2[C@H]1CC[C@H](O)CC1 [Compound 116]	≤ 100 nM	+ (a ratio of >2.0 and <10)	100 to 1000 nM
CCCC(C)Nc1ncc2c(=O)n(C3CCN(C)CC3)cc([C@H]3CC[C@H](O)CC3)c2n1 (stereo partly drawn) [Compound 117]	≤ 100 nM	+++ (a ratio of >100)	1000 to 10000 nM
CC(C)CC(C)Nc1ncc2c(=O)n(C3CCNCC3)cc([C@H]3CC[C@H](O)CC3)c2n1 (stereo partly drawn) [Compound 119]	≤ 100 nM	+++ (a ratio of >100)	1000 to 10000 nM
CS(=O)(=O)N1CC[C@H](Nc2ncc3c(OC4CCOCC4)ncc([C@H]4CC[C@H](O)CC4)c3n2)C1 [Compound 278]	100 to 1000 nM	++ (a ratio of between 10 and 100)	1000 to 10000 nM
COC[C@H](C)Nc1ncc2c(OC3CCOCC3)ncc(-c3ccc(N4CCN(C)CC4)cc3)c2n1 [Compound 279]	100 to 1000 nM	++ (a ratio of between 10 and 100)	1000 to 10000 nM
COC[C@H](C)Nc1ncc2c(OC3CCOCC3)ncc(-c3ccc(C4CCN(C)CC4)cc3)c2n1 [Compound 280]	≤ 100 nM	++ (a ratio of between 10 and 100)	1000 to 10000 nM
CCOC[C@H](C)Nc1ncc2c(OC3CCOCC3)ncc([C@H]3CC[C@H](O)CC3)c2n1 [Compound 281]	≤ 100 nM	+++ (a ratio of >100)	1000 to 10000 nM
CN1CC(Nc2ncc3c(OC4CCOCC4)ncc([C@H]4CC[C@H](O)CC4)c3n2)CC1=O (stereo partly drawn) [Compound 282]	1000 to 10000 nM	++ (a ratio of between 10 and 100)	1000 to 10000 nM
O=C(O)c1ccc(Nc2ncc3c(OC4CCNCC4)ncc([C@H]4CC[C@H](O)CC4)c3n2)cc1 [Compound 283]	≤ 100 nM	+++ (a ratio of >100)	100 to 1000 nM
C[C@@H](CCO)Nc1ncc2c(OC3CCOCC3)ncc([C@H]3CC[C@H](O)CC3)c2n1 [Compound 284]	≤ 100 nM	+++ (a ratio of >100)	1000 to 10000 nM
COC[C@H](C)Nc1cc2c(cn1)c(OC1CCOCC1)ncc2[C@H]1CC[C@H](O)CC1 [Compound 285]	≤ 100 nM	+++ (a ratio of >100)	1000 to 10000 nM
O[C@H]1CC[C@H](c2cnc(OC3CCOCC3)c3cnc(NCCC(F)(F)F)nc32)CC1 [Compound 286]	≤ 100 nM	+ (a ratio of >2.0 and <10)	≤ 100 nM
CC[C@H](C)Nc1ncc2c(O[C@H]3CC[C@](C)(O)CC3)ncc([C@H]3CC[C@H](O)CC3)c2n1 [Compound 287]	≤ 100 nM	++ (a ratio of between 10 and 100)	100 to 1000 nM
CC(C)Nc1ncc2c(OC3CCOCC3)ncc(-c3cccc(S(=O)(=O)N(C)C)c3)c2n1 [Compound 288]	≤ 100 nM	+++ (a ratio of >100)	100 to 1000 nM
COC[C@H](C)Nc1ncc2c(OC3CCN(S(C)(=O)=O)CC3)ncc([C@H]3CC[C@H](O)CC3)c2n1 [Compound 289]	≤ 100 nM	+++ (a ratio of >100)	1000 to 10000 nM
CC[C@H](C)Nc1ncc2c(=O)n([C@H]3CC[C@H](N)CC3)cc([C@H]3CC[C@H](O)CC3)c2n1 [Compound 290]	≤ 100 nM	+++ (a ratio of >100)	1000 to 10000 nM
CC1(Nc2ncc3c(OC4CCNCC4)ncc([C@H]4CC[C@H](O)CC4)c3n2)CC1 [Compound 291]	≤ 100 nM	+++ (a ratio of >100)	1000 to 10000 nM
C[C@@H](CC#N)Nc1ncc2c(OC3CCOCC3)ncc([C@H]3CC[C@H](O)CC3)c2n1 [Compound 292]	≤ 100 nM	+++ (a ratio of >100)	1000 to 10000 nM
COC[C@H](C)Nc1ncc2c(OC3CCOCC3)ncc([C@H]3CC[C@](C)(O)CC3)c2n1 [Compound 293]	≤ 100 nM	+++ (a ratio of >100)	1000 to 10000 nM
COC[C@H](C)Nc1ncc2c(OC3CCOCC3)ncc([C@H]3CC[C@@](C)(O)CC3)c2n1 [Compound 294]	≤ 100 nM	+++ (a ratio of >100)	1000 to 10000 nM
COC[C@H](C)Nc1ncc2c(O[C@H]3C[C@H](O)C3)ncc([C@H]3CC[C@H](O)CC3)c2n1 [Compound 295]	≤ 100 nM	+++ (a ratio of >100)	1000 to 10000 nM
COC[C@H](C)Nc1ncc2c(O[C@H]3C[C@@H](O)C3)ncc([C@H]3CC[C@H](O)CC3)c2n1 [Compound 296]	≤ 100 nM	+++ (a ratio of >100)	1000 to 10000 nM
CNC(=O)Nc1ccc(-c2cnc(OC3CCOCC3)c3cnc(N[C@@H](C)COC)nc23)cc1 [Compound 297]	100 to 1000 nM	++ (a ratio of between 10 and 100)	1000 to 10000 nM
CC[C@H](C)Nc1ncc2c(O[C@H]3CC[C@@H](N(C)C)C3)ncc([C@H]3CC[C@H](O)CC3)c2n1 [Compound 298]	≤ 100 nM	+++ (a ratio of >100)	1000 to 10000 nM
O[C@H]1CC[C@H](c2cnc(OC3CCNCC3)c3cnc(Nc4ccc(Cl)c(Cl)c4)nc32)CC1 [Compound 299]	≤ 100 nM	++ (a ratio of between 10 and 100)	≤ 100 nM
